Drawing on patent publication US20120302573A1, “METHODS OF INHIBITING PRO MATRIX METALLOPROTEINASE ACTIVATION” (priority 2011, published 2012), this text covers Kd and IC50 for 25 compounds.

The target of assay [1] is T1, proMMP9(20-445;ΔFnII) (SEQ ID NO:6) (Homo sapiens, UniProt P14780, DEL216-390).
T1 construct: amino acid pairs including: 29-215/391-444, 67-215/391-444, and 20-215/391-445, respectively; start methionine (N); made in house; host or cells: E. coli BL21(DE3) RIL
T1 sequence (P14780 with tags, fused parts or gaps DEL216-390): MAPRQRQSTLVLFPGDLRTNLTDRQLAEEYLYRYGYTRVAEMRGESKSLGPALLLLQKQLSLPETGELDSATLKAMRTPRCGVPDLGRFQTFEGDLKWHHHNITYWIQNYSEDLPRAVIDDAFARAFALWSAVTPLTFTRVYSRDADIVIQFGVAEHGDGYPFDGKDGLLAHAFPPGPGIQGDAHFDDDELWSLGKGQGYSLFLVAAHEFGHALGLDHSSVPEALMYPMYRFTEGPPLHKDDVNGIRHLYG
Kind of assay: ThermoFluor binding assay with proMMP9(20-445;ΔFnII). The protocol:
(§1) The experiments were carried out using instruments available from Johnson & Johnson Pharmaceutical Research & Development, LLC. TF dye used in all experiments was […] (1,8-ANS) (Invitrogen: A-47).
(§2) Columns 12 and 24 were used as DMSO reference and contained no compound. […] Following compound dispense, protein and dye solutions were added to achieve the final assay volume of 3 μL.
(§3) Assay plates were robotically loaded onto a thermostatically controlled PCR-type thermal block and then heated from 40 to 90° C. at a ramp-rate of 1° C./min for all experiments. Fluorescence was measured by continuous illumination with UV light (Hamamatsu LC6) supplied via fiber optics and filtered through a band-pass filter (380-400 nm; >6 OD cutoff). Fluorescence emission of the entire 384-well plate was detected by measuring light intensity using a CCD camera (Sensys, Roper Scientific) filtered to detect 500±25 nm, resulting in simultaneous and independent readings of all 384 wells.
(§4) Thermodynamic parameters necessary for fitting compound binding for each proMMP were estimated by differential scanning calorimetry (DSC) and from ThermoFluor® data. The heat capacity of unfolding for each protein was estimated from the molecular weight and from ThermoFluor® dosing data.
The protein sample preparations included a desalting buffer exchange step via a PD-10 gravity column (GE Healthcare).
A general note: Differential scanning fluorimetry follows unfolding on heating by fluorescence.

The target in assay [2] is T2, proMMP9(67-444;ΔFnII) (SEQ ID NO:5) (Homo sapiens, UniProt P14780, DEL216-390).
T2 construct: amino acid pairs including: 29-215/391-444, 67-215/391-444, and 20-215/391-445, respectively; start methionine (N); made in house; host or cells: E. coli BL21(DE3) RIL
T2 sequence (P14780 with tags, fused parts or gaps DEL216-390): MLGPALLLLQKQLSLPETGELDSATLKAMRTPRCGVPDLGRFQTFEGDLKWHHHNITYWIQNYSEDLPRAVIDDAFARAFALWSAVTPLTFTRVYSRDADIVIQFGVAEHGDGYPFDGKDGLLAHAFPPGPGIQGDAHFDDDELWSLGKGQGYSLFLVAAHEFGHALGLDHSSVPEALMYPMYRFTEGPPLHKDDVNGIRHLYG
Kind of assay: ThermoFluor binding assay with proMMP9(67-444;ΔFnII). As to the method: as §1, §2, §3, §4
The protein sample preparations had to include a desalting buffer exchange step via a PD-10 gravity column (GE Healthcare).

The target of assay [3] is full-length proMMP9(1-707) activation by catalytic MMP3 (Homo sapiens, UniProt P14780, R574P). Kind of assay: ProMMP9/MMP3 DQ Gelatin Activation Assay.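 Further: readout is fluorescence of quenched fluorescein gelatin cut by activated MMP9, 30 min activation at 37 °C, inhibition relative to DMSO-only controls with EDTA as blank.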 The class given is biochemical. Further details: made in house; host or cells: COS-1 (proMMP9); E. coli (MMP3). The settings on record: proMMP9 from COS-1 cells; read-out: ProMMP9/MMP3 DQ gel, IC50.
Protocol: Compounds were assessed for inhibition of proMMP9 activation by catalytic MMP3 using a quenched fluorescein gelatin substrate (DQ gelatin, Invitrogen D12054) that fluoresces upon cleavage by activated MMP9. The assay buffer employed was 50 mM Hepes, pH 7.5, 10 mM CaCl2, 0.05% Brij-35. DMSO was included at a final concentration of 0.2%, arising from the test compound addition. […] Test compounds in DMSO were diluted 250-fold in assay buffer at 4× the final concentration. The reaction volume was 12 μL, and all reactions were conducted in triplicate. […] The plate was sealed and incubated for 30 min at 37° C. […] Immediately following the 30 min incubation, 4 μL of 40 μg/ml DQ gelatin substrate was added (freshly diluted in assay buffer), and incubated for 10 min at room temperature. […] Reactivity of residual MMP3 towards DQ gelatin was minimal under these conditions. Percent inhibition of test compounds were determined from suitable positive (DMSO only in assay buffer) and negative (EDTA added prior to reaction initiation) controls. Plots of % inhibition vs. test compound concentration were fit to a four-parameter logistics equation (GraphPad Prism® software) for determination of IC50.

Where a name gives a salt, the structure may show the parent alone. Bounds are passed on as bounds.

full-length proMMP9(1-707) activation by catalytic MMP3, sequence (P14780 20-707 R574P): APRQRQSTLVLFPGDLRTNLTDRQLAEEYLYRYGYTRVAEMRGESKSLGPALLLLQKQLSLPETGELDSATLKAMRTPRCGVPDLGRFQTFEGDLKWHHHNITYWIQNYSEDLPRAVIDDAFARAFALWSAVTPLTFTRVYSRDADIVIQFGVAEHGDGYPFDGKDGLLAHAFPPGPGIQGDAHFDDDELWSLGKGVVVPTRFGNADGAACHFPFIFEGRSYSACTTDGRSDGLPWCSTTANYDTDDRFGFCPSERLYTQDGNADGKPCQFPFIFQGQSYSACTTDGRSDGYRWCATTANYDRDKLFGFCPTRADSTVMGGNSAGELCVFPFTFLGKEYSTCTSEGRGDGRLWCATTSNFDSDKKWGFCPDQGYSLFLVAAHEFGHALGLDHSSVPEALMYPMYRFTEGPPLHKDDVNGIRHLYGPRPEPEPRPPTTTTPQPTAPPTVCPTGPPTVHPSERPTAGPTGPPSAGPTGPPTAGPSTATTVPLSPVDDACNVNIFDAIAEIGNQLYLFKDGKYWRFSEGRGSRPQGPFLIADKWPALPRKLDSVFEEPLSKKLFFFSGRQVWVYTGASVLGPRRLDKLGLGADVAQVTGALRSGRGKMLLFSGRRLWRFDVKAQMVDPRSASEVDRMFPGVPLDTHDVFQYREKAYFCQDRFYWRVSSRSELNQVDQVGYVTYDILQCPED

As usually defined, the Kd is the equilibrium constant for the complex coming apart. Turning to `Cc1nc(C)c(-c2csc(Nc3cccc(C(N)=O)c3)n2)s1` [Example 9, 3-(2′,4′-Dimethyl-[4,5′]bithiazolyl-2-ylamino)-benzamide], the Kd in assay [1] is 19 µM; in assay [2] it was more than 81 µM.

On to `CC(=O)Nc1nc(C)c(-c2csc(Nc3ccccc3OCC3CC3)n2)s1` [Example 19, N-[2-(2-Cyclopropylmethoxy-phenylamino)-4′-methyl-[4,5′]bithiazolyl-2′-yl]-acetamide.TFA], for which the values for the Kd in assay [1] and in assay [2] were more than 52 µM and 3.86 µM, respectively.

For `COc1ccc(Nc2nc(-c3sc(NC(C)=O)nc3C)cs2)c(OC)c1` [Example 23, N-[2-(2,4-Dimethoxy-phenylamino)-4′-methyl-[4,5′]bithiazolyl-2′-yl]-acetamide.TFA], the IC50 in assay [3] turned out to be 26.2 µM. Further, the Kd is more than 35 µM in assay [1] and 5.53 µM in assay [2].

In the case of `c1cncc(-c2csc(Nc3ccccc3OCc3cccs3)n2)c1` [Example 24, (4-Pyridin-3-yl-thiazol-2-yl)-[2-(thiophen-2-ylmethoxy)-phenyl]-amine.TFA], in assay [3], the IC50 was more than 20 µM. For the same compound, the figures for the Kd in assay [1] and in assay [2] were 0.37 µM and more than 38 µM, respectively.

Take `CCCOc1ccccc1Nc1nc(-c2cccnc2)cs1` [Example 25, (2-Propoxy-phenyl)-(4-pyridin-3-yl-thiazol-2-yl)-amine]: the IC50 in assay [3] was more than 20 µM. In addition, the values for the Kd in assay [1] and in assay [2] were 12.5 µM and 16.3 µM, respectively.

Take `COc1ccccc1Nc1nc(-c2cnccc2C)cs1` [Example 29, (2-Methoxy-phenyl)-[4-(4-methyl-pyridin-3-yl)-thiazol-2-yl]-amine.TFA]: the IC50 in assay [3] was 14.4 µM.

Consider `CC(=O)Nc1nc(C)c(-c2csc(Nc3ccccc3OC(F)(F)F)n2)s1` [Example 31, N-[4′-Methyl-2-(2-trifluoromethoxy-phenylamino)-[4,5′]bithiazolyl-2′-yl]-acetamide.HCl], for which the IC50 in assay [3] stood at 3.3 µM. The Kd in assay [1] stood at 3.34 µM; in assay [2], 0.645 µM.

Take `CC(=O)Nc1nc(C)c(-c2csc(Nc3ccccc3C(F)(F)F)n2)s1` [Example 32, N-[4′-Methyl-2-(2-trifluoromethyl-phenylamino)-[4,5′]bithiazolyl-2′-yl]-acetamide.TFA]: the IC50 in assay [3] is more than 20 µM. The dissociation constant Kd in assay [1] was more than 9.2 µM; in assay [2] it was 9.06 µM.

Take `CSc1ccccc1Nc1nc(-c2sc(NC(C)=O)nc2C)cs1` [Example 33, N-[4′-Methyl-2-(2-methylsulfanyl-phenylamino)-[4,5′]bithiazolyl-2′-yl]-acetamide.HCl]: the IC50 in assay [3] came to 2.9 µM. Moreover, the Kd in assay [1] stood at 3.75 µM; in assay [2], 0.695 µM.

Regarding `CNc1nc(C)c(-c2csc(Nc3ccccc3OC)n2)s1` [Example 35, N^2-(2-Methoxy-phenyl)-4′,N^2′-dimethyl-[4,5′]bithiazolyl-2,2′-diamine], the IC50 in assay [3] turned out to be 7 µM. Further, the Kd in assay [1] was 10.3 µM; in assay [2] it was 3.92 µM.

As to `COc1ccccc1Nc1nc(-c2sc(N(C)C(C)=O)nc2C)cs1` [Example 36, N-[2-(2-Methoxy-phenylamino)-4′-methyl-[4,5′]bithiazolyl-2′-yl]-N-methyl-acetamide.TFA], in assay [3], the IC50 came to 1.7 µM. For the same compound, the Kd in assay [1] and in assay [2] was more than 11 µM in each case.

For `CCNc1nc(C)c(-c2csc(Nc3ccccc3OC)n2)s1` [Example 38], the IC50 in assay [3] was found to be 9.6 µM. Besides, the Kd in assay [1] and in assay [2] was more than 8.3 µM in each case.

For `CC(=O)Nc1nc(C)c(-c2csc(Nc3ccccc3Cl)n2)s1` [Example 39, N-[2-(2-Chloro-phenylamino)-4′-methyl-[4,5′]bithiazolyl-2′-yl]-acetamide.HCl], the IC50 in assay [3] is 17.1 µM. The results for the equilibrium dissociation constant (Kd) in assay [1] and in assay [2] were 6.35 µM and 2.49 µM, respectively.

For the compound `CC(=O)Nc1nc(C)c(-c2csc(Nc3ccccc3F)n2)s1` [Example 40, N-[2-(2-Fluoro-phenylamino)-4′-methyl-[4,5′]bithiazolyl-2′-yl]acetamide.TFA], the IC50 in assay [3] is more than 20 µM. Further, the equilibrium dissociation constant (Kd) in assay [1] was more than 18 µM; in assay [2], 16.3 µM.

For `COc1ccc(Nc2nc(-c3sc(N)nc3C)cs2)c(OC)c1` [Example 48, N^2-(2,4-Dimethoxy-phenyl)-4′-methyl-[4,5′]bithiazolyl-2,2′-diamine], the Kd in assay [1] is 17.5 µM; in assay [2], 4.73 µM.

Turning to `COc1ccccc1Nc1nc(C2(C)CC3(CC(C)OC3=O)C(=O)O2)cs1` (stereo not shown) [Example 49, 3-[2-(2-Methoxy-phenylamino)-thiazol-4-yl]-3,8-dimethyl-2,7-dioxa-spiro[4.4]nonane-1,6-dione], the IC50 in assay [3] worked out at 5.7 µM. In addition, the results for the dissociation constant Kd in assay [1] and in assay [2] were more than 17 µM and 8.7 µM, respectively.

In the case of `COc1ccccc1Nc1nc(-c2sc(NC(=O)c3ccccc3)nc2C)cs1` [Example 50, N-[2-(2-Methoxy-phenylamino)-4′-methyl-[4,5′]bithiazolyl-2′-yl]-benzamide], in assay [3], the IC50 is 21.2 µM. Also, the results for the Kd in assay [1] and in assay [2] were more than 14 µM and 4.05 µM, respectively.

In the case of `COc1ccc(OC)c(Nc2nc(-c3c(C)nc4ccccn34)cs2)c1` [Example 51, (2,5-Dimethoxy-phenyl)-[4-(2-methyl-imidazo[1,2-a]pyridin-3-yl)-thiazol-2-yl]-amine], the IC50 in assay [3] worked out at 10.1 µM. In addition, the figures for the dissociation constant Kd in assay [1] and in assay [2] were more than 16 µM and more than 15 µM, respectively.

In the case of `COc1ccc(OC)c(Nc2nc(-c3cccnc3)cs2)c1` [Example 54, (2,5-Dimethoxy-phenyl)-(4-pyridin-3-yl-thiazol-2-yl)-amine], the IC50 in assay [3] worked out at 16.1 µM. The dissociation constant Kd was more than 65 µM in assay [1] and 17.9 µM in assay [2].

For the compound `COc1ccc(Cl)cc1Nc1nc(-c2cccnc2)cs1` [Example 56, (5-Chloro-2-methoxy-phenyl)-(4-pyridin-3-yl-thiazol-2-yl)-amine], the IC50 in assay [3] is more than 20 µM. For the same compound, the Kd in assay [1] was more than 70 µM; in assay [2], 14.6 µM.

As for `CC(=O)Nc1nc(C)c(-c2csc(Nc3ccccc3C)n2)s1` [Example 63, N-(4′-Methyl-2-o-tolylamino-[4,5′]bithiazolyl-2′-yl)-acetamide], the IC50 in assay [3] stood at 28.2 µM. Also, the equilibrium dissociation constant (Kd) turned out to be 19.6 µM in assay [1] and 5.13 µM in assay [2].

On to `CCOc1ccccc1Nc1nc(-c2sc(NC(C)=O)nc2C)cs1` [Example 66, N-[2-(2-Ethoxy-phenylamino)-4′-methyl-[4,5′]bithiazolyl-2′-yl]-acetamide], for which the IC50 in assay [3] is 1.9 µM. The Kd in assay [1] and in assay [2] was more than 6.1 µM throughout.

As for `COc1ccccc1Nc1nc(C2(C)CC3(CC(C)(C)OC3=O)C(=O)O2)cs1` (stereo not shown) [Example 69, 3-[2-(2-Methoxy-phenylamino)-thiazol-4-yl]-3,8,8-trimethyl-2,7-dioxa-spiro[4.4]nonane-1,6-dione], the IC50 in assay [3] came to 11.2 µM. Further, the Kd in assay [1] and in assay [2] was more than 15 µM each time.

Regarding `CCOc1ccccc1Nc1nc(-c2cnc3ncccn23)cs1` [Example 71, (2-Ethoxy-phenyl)-(4-imidazo[1,2-a]pyrimidin-3-yl-thiazol-2-yl)-amine], in assay [3], the IC50 stood at 6.9 µM. Further, the values for the equilibrium dissociation constant (Kd) in assay [1] and in assay [2] were 11.7 µM and 6.56 µM, respectively.

On to “(5-Chloro-2-methoxy-phenyl)-(4-imidazo[1,2-a]pyrazin-3-yl-thiazol-2-yl)-amine [Example 72]”, for which the IC50 in assay [3] is 3.1 µM. Moreover, the results for the Kd in assay [1] and in assay [2] were 6.53 µM and more than 58 µM, respectively.
